According to article PMC11879040, “Advancing systemic toxicity risk assessment: Evaluation of a NAM-based toolbox approach” (Toxicological Sciences, 2024):
Like-named read-outs stand apart in the source and are kept apart here. Peptide text beside a SMILES is read from it.

Columns and labels:
[1] = test system: Potassium Voltage-Gated Channel Kv non-selective, KCNQ1 (r); assay: IPP KCNQ1 binding (antagonist radioligand); parameters: species or system rat; details: control α-dendrotoxin
[2] = test system: Gamma-aminobutyric acid receptor subunit alpha-1 BZD site, GABRA1A (r); type: binding, rat; details: control diazepam
[3] = test system: Sodium channel protein type 5 subunit alpha (site 2), SCN5A (r); type: binding, rat; details: control veratridine
[4] = target: T1, Adenosine receptor A2a, ADORA2A (h) (Homo sapiens, UniProt P29274); assay: IPP ADORA2A binding (agonist radioligand); details: control NECA
T1 construct: purchased Eurofins Cerep (SafetyScreen44-based IPP panel)
T1 sequence (P29274 whole entry): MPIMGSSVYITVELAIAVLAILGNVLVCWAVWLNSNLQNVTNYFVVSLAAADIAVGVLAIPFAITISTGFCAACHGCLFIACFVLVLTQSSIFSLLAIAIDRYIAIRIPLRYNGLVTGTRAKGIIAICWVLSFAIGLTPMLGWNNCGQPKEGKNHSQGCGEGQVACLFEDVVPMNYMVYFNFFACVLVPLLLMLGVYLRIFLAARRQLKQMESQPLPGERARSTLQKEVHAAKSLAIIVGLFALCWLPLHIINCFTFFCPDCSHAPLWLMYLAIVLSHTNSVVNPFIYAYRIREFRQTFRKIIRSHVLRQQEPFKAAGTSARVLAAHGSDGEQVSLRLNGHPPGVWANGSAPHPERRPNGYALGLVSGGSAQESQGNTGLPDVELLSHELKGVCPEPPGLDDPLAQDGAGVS

[5] = target: T2, Estrogen receptor, ER1 (h) (Homo sapiens, UniProt P03372); assay: IPP ER1 coactivator recruitment (agonist); type: biochemical; details: estriol
T2 construct: purchased Eurofins Cerep (SafetyScreen44-based IPP panel)
T2 sequence (P03372 1-595): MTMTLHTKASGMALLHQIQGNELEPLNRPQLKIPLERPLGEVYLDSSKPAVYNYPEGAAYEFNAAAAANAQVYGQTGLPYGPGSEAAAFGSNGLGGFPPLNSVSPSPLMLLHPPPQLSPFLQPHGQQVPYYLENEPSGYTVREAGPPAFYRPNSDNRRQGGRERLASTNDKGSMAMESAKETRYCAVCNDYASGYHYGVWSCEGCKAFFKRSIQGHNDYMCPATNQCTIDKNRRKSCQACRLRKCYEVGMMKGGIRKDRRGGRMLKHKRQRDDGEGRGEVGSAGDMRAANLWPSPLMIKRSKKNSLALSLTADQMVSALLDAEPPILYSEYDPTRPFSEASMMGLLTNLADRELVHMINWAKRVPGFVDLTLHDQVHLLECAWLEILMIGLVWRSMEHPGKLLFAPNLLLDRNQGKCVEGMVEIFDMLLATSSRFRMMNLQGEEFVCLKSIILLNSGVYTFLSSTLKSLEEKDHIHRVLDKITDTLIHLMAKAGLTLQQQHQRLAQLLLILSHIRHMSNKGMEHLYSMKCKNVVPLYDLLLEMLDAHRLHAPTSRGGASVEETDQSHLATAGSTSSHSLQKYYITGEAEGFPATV

[6] = target: T2, Estrogen receptor, ER1 (h); assay: IPP ER1 coactivator recruitment (antagonist); type: biochemical; details: estriol
[7] = test system: Thyroid hormone receptor alpha, THRA (h); assay: IPP THRA coactivator recruitment (agonist); type: biochemical, human; details: agonist, T3
Tubulin (r) = assay: IPP Tubulin binding; parameters: species or system rat; details: ligand/control Colchicine
HepG2 cells [8] = assay: Cell stress panel (CSP), 24 h, 8 concentrations, BIFROST global PoD; type: cell-based; details: for pod_cell_stress PoD: HepG2, cell stress panel PoD
Method: Compounds were tested using the previously developed cell stress panel ([Hatherell et al. 2020]) and the expanded biomarker panel outlined in Middleton et al. HepG2 cells were treated with all compounds for 24 h across 8 concentrations prior to biomarker analysis. The same plate layout and number of replicates (3 biological and 2 technical) were used as previously for each assay within the panel.

HepG2 cells [9] = assay: High-throughput transcriptomics (HTTr, TempO-Seq), HepG2, 24 h; type: cell-based, human; details: HepG2; for pod_httr_bifrost PoD: HTTr BIFROST PoD; for podl_path_minbmd PoD: HTTr minimum pathway BMD(L)
Method: (§1) HepG2, HepaRG, and MCF7 cells were treated with each compound for 24 h across a dose range of 7 concentrations and lysed using TempO-Seq lysis buffer (BioSpyder Technologies, proprietary kit, see [Middleton et al. 2022] for method details). Sequencing was performed using TempO-Seq (BioClavis) version 2 of the human whole transcriptome panel and analyzed as described previously in Middleton et al.

HepaRG cells = assay: High-throughput transcriptomics (HTTr, TempO-Seq), HepaRG, 24 h; type: cell-based, human; details: HepaRG; for pod_httr_bifrost PoD: HTTr BIFROST PoD; for podl_path_minbmd PoD: HTTr minimum pathway BMD(L)
Method: as §1

MCF7 cells = assay: High-throughput transcriptomics (HTTr, TempO-Seq), MCF7, 24 h; type: cell-based, human; details: MCF-7; for pod_httr_bifrost PoD: HTTr BIFROST PoD; for podl_path_minbmd PoD: HTTr minimum pathway BMD(L)
Method: as §1

[10] = test system: Glutamate receptor ionotropic NMDA 1 non-selective, GRIN1 (r); details: control CGS 19755
[11] = target: Potassium voltage-gated channel subfamily H member 2 hERG, KCNH2 (h) (Homo sapiens, UniProt Q12809); details: [3H] Dofetilide, control Terfenadine
Chain of Potassium voltage-gated channel subfamily H member 2 hERG, KCNH2 (h) (Q12809 whole entry): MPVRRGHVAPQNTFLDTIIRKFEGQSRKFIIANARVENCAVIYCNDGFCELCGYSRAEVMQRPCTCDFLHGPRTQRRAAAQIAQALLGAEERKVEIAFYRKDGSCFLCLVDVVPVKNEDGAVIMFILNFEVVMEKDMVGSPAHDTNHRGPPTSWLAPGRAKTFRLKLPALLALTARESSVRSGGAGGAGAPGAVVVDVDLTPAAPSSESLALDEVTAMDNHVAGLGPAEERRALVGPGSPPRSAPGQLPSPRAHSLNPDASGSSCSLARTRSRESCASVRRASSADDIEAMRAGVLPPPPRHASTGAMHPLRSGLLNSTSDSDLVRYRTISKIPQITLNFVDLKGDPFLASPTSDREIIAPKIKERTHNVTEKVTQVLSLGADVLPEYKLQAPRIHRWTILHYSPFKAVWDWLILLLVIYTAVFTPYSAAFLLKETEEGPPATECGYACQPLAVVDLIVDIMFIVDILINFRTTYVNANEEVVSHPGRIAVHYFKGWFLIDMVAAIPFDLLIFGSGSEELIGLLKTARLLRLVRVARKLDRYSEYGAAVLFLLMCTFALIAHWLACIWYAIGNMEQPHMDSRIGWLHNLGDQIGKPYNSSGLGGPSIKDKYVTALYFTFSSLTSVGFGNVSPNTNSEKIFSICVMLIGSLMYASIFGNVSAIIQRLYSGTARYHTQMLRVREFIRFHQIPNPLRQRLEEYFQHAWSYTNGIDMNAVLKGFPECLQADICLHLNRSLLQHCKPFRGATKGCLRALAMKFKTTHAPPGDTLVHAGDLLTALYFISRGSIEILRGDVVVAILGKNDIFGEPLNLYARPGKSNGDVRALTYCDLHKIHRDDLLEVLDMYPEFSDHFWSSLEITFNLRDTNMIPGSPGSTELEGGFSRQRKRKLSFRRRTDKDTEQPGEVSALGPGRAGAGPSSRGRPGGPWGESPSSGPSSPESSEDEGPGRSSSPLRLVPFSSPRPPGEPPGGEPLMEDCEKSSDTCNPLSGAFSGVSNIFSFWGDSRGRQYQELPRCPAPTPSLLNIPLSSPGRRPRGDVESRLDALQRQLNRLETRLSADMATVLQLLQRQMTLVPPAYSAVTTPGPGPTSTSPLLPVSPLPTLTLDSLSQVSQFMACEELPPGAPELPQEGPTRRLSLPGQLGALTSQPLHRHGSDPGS

rat = details: rat, cited from earlier work; for PoD (NOAEL): ref ToxRefDB/Paul-Friedman et al. (2020)/regulatory opinions
[12] = PBK level L2; taken or scaled from references (median where several); ref [6],[7],[10],[19]; cited from earlier work
[13] = target: T3, Pregnane X receptor PXR, NR1I2 (h) (Homo sapiens, UniProt O75469); assay: IPP PXR coactivator recruitment (agonist); details: T0901317 for control
T3 sequence (O75469 1-434): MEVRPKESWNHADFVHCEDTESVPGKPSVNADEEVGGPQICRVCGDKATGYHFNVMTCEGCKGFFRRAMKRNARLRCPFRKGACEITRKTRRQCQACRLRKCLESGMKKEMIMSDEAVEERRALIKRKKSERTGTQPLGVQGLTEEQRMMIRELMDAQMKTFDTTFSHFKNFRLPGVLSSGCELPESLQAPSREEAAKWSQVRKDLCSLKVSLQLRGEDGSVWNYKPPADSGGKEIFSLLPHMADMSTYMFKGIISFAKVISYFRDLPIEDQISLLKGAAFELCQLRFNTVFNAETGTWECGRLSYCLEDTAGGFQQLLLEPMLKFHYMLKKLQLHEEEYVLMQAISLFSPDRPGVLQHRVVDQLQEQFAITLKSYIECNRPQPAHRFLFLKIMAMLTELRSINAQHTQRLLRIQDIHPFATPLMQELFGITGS

[14] = target: T3, Pregnane X receptor PXR, NR1I2 (h); assay: IPP PXR coactivator recruitment (antagonist); details: ligand T0901317
[15] = cited from earlier work
[16] = PBK level L2; single value or median; ref [2],[4],[6],[7],[8],[10],[11],[15],[18],[27],[34]; cited from earlier work
[17] = Assignment of risk classifications to benchmark chemical-exposure scenarios; details: for risk: from table S1
[18] = target: Voltage-dependent L-type Ca2+ channel (dihydropyridine site), CACNA1C (r) (Rattus norvegicus, UniProt P22002); type: binding; details: IPP screening at 10 uM; control nitrendipine
Chain of Voltage-dependent L-type Ca2+ channel (dihydropyridine site), CACNA1C (r) (P22002 whole entry): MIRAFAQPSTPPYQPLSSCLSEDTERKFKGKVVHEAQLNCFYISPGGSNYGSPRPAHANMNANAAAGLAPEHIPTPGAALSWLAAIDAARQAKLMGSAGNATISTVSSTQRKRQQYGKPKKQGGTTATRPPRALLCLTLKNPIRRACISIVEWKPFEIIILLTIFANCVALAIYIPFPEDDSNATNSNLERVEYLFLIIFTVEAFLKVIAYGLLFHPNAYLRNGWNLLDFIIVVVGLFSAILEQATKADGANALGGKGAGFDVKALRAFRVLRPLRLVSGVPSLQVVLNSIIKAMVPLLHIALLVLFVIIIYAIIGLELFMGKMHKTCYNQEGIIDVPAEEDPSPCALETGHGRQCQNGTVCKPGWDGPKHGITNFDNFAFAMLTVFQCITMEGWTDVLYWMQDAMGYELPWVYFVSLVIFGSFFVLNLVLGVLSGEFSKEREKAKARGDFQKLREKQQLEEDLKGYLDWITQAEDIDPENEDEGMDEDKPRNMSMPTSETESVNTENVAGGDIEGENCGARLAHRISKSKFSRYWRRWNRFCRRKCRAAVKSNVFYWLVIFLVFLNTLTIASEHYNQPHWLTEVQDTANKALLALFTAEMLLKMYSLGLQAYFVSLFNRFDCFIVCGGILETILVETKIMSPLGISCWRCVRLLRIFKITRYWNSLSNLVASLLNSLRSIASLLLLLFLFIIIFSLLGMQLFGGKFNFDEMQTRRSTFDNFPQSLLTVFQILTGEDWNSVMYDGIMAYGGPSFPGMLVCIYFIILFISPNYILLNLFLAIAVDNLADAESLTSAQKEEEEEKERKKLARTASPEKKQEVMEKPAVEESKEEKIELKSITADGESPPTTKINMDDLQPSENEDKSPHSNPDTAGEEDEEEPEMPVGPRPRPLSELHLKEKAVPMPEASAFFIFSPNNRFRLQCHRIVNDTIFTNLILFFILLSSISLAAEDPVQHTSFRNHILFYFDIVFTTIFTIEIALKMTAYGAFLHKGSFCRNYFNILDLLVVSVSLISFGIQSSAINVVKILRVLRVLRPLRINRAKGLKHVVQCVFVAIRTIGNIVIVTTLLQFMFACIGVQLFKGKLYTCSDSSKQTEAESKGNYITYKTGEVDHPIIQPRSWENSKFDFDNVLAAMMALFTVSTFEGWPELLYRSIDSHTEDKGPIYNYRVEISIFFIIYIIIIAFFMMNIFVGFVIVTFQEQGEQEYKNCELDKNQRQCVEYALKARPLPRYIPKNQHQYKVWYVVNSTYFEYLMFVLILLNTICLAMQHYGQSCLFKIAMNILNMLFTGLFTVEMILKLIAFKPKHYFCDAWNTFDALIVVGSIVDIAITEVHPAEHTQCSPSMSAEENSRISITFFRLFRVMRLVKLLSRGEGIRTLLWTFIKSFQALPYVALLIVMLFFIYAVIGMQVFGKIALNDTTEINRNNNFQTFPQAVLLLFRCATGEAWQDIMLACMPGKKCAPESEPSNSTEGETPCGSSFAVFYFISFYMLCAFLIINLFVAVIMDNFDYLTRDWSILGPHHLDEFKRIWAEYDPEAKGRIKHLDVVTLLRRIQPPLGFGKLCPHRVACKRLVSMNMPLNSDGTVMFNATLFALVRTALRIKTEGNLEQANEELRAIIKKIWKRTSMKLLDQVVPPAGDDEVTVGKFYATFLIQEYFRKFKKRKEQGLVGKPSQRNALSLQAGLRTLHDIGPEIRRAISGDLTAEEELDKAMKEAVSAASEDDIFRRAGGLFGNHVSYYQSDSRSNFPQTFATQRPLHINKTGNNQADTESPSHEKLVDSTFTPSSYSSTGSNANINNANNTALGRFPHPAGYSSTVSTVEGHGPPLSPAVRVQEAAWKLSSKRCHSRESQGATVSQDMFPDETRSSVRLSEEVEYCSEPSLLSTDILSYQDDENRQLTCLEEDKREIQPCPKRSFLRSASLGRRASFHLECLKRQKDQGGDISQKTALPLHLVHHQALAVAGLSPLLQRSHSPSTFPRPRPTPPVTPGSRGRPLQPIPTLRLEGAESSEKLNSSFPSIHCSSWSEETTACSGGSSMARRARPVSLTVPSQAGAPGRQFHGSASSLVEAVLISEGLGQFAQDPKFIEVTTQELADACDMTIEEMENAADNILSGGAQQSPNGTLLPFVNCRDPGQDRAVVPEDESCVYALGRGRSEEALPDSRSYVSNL

[19] = test system: 63 targets with known safety liabilities; assay: In vitro pharmacological profiling (IPP) panel, screening at 10 or 100 µM and dose response, minimum IC50/AC50; type: biochemical; details: lowest AC50 across IPP panel (systemic targets); cell_type -; read-out: ipp_lowest_ac50_systemic PoD
[20] = PBK level L2; at the given pH; single value or median; ref [1],[4],[5],[10],[11],[17],[26]; cited from earlier work
[21] = 100 uM, * denotes assay interference (2-Amino-6-chloro-4-nitrophenol, HC Red 3)

| Compound | Bioactivity Observations: cell stress panel (HepG2 cells [8]) | pod_cell_stress PoD (HepG2 cells [8]) [µM] | pod_httr_bifrost PoD (HepG2 cells [9]) [µM] | podl_path_minbmd PoD (HepG2 cells [9]) [µM] | pod_httr_bifrost PoD (HepaRG cells) [µM] | podl_path_minbmd PoD (HepaRG cells) [µM] | pod_httr_bifrost PoD (MCF7 cells) [µM] | podl_path_minbmd PoD (MCF7 cells) [µM] | Intrinsic Liver Clearance [12] [L/h] | Specific binding ([1]; IPP screening at 10 uM) [%] | Specific binding ([2]; IPP screening at 10 uM) [%] | Specific binding ([3]; IPP screening at 10 uM) [%] | Specific binding ([4]; IPP screening at 10 uM) [%] | IPP screening %, Coactivator recruitment ([7]; 10 uM) [%] | IPP screening %, Specific binding (Tubulin (r); 10 uM) [%] | Specific binding ([10]; IPP screening at 10 uM) [%] | IPP screening %, Specific binding ([11]; 10 uM) [%] | IPP screening %, Coactivator recruitment ([13]; 10 uM) [%] | IPP screening %, Coactivator recruitment ([14]; 10 uM) [%] | also measured |
| --- | --- | --- | --- | --- | --- | --- | --- | --- | --- | --- | --- | --- | --- | --- | --- | --- | --- | --- | --- | --- |
| COC(=O)[C@H](Cc1ccccc1)NC(=O)[C@@H](N)CC(=O)O [Aspartame, Methyl L-alpha-aspartyl-L-phenylalaninate] (H-Asp-Phe-OMe) | the CSP shows some small effects on PGC1alpha/Nrf2 and the ECAR (seahorse) | 536.875 | 1509.3 | 2500 | 853.753 | 2500 | 423.587 | 2500 | 400.2 |  |  |  |  |  |  |  |  |  |  | Specific binding ([1]; IPP screening at 100 uM): 2.5%; Specific binding ([2]; IPP screening at 100 uM): 7.4%; Specific binding ([3]; IPP screening at 100 uM): 3.9%; Specific binding ([4]; IPP screening at 100 uM): 0.3%; IPP screening %, Coactivator recruitment [5, 21]: 0.0%; IPP screening %, Coactivator recruitment [6, 21]: -1.0%; IPP screening %, Coactivator recruitment [7, 21]: 2.0%; IPP screening %, Specific binding (Tubulin (r); 100 uM): -13.0%; Specific binding ([10]; IPP screening at 100 uM): 24.0%; IPP screening %, Specific binding ([11]; 100 uM): 1.5%; PoD (NOAEL) (rat; 38 days, developmental neurotoxicity study): 1614 mg/kg bw/day; IPP screening %, Coactivator recruitment ([13]; 100 uM): 15.7%; IPP screening %, Coactivator recruitment ([14]; 100 uM): -11.9% |
| CCCCOC(=O)c1ccc(O)cc1 [Butylparaben, Butyl 4-hydroxybenzoate] |  | 4.378 |  |  |  |  |  |  | 799.2 | 1.5 | 12.4 | 23.9 | 5.4 | 2.0 | 8.0 | -5.2 | -13.5 | 3.1 | 6.9 | BMDL5 ([15]; ref SCCS): 24 mg/kg/day; Real NOAEL ([15]; ref not given): 1000 mg/kg/day; alternative lowest PoD ([15]; studies stated to be flawed, ref Oishi): 14.4 mg/kg/day; PoD (LOAEL) (rat; subchronic - 8 weeks, ref Oishi): 10 mg/kg bw/day; Fup [16]: 5.64%; Risk Classification ([17]; Dermal […] in Body Lotion): Low risk; risk ([17]; Dermal, […] (regulation says limit is […] as acid), Body lotion, Exp1): 0 |
| O=[N+]([O-])c1cc(C(F)(F)F)c(Cl)c([N+](=O)[O-])c1Nc1ncc(C(F)(F)F)cc1Cl [Fluazinam, 3-Chloro-N-[3-chloro-2,6-dinitro-4-(trifluoromethyl)phenyl]-5-(trifluoromethyl)pyridin-2-amine] | The seahorse assays within the cell stress panel do report activity and with a very large magnitude of change in the OCR biomarker | 0.6023 | 0.03634 | 0.699 | 0.0222 | 0.4338 | 0.1303 | 0.4999 |  | -3.7 | -31.4 | 19.6 | 14.9 | 2.0 | 9.0 | 1.2 | 16.2 | -8.8 | 111.2 | Specific binding [18]: 99.9%; IPP screening %, Coactivator recruitment ([5]; 10 uM): -4.0%; IPP screening %, Coactivator recruitment ([6]; 10 uM): 46.0%; AC50 [19]: 430 nM; PoD (NOAEL) (rat; 104 weeks): 0.38 mg/kg bw/day; Aqueous Solubility [20]: 0.95 µg/mL; Risk Classification ([17]; Oral 0.01 mg/kg bw/day): Low risk; Risk Classification ([17]; Oral 32% of 0.01 mg/kg bw/day): Low risk; risk ([17]; Oral, 32% ADI 0.01 mg/kg bw/day, Food residue, Exp1): 0; risk ([17]; Oral, ADI 0.01 mg/kg bw/day, Food residue, Exp2): 0 |
